What all share (assay): minimal inhibitory concentration in Sabouraud medium
What all share (type): cell-based

In one test the test system is Candida albicans CBS.562. The note with it: Candida albicans. The source says: Candida albicans CBS.562 "2"
(§1) As a medium Saboroud medium was employed.

In test [1] the test system is Trichophyton mentagrophytes CBS.50148. The note with it: Trichophyton mentagrophytes, read-out: minimal inhibitory concentration.
Source text: Trichophyton mentagrophytes CBS.50148
as §1

In test [2] the test system is Saccharomyces cerevisiae OKI.1282. The note with it: Saccharomyces cerevisiae.
Source text: Saccharomyces cerevisiae OKI.1282
as §1

Test [3] deals with Epidermophyton floccosum OKI/IV. The note with it: Epidermophyton floccosum, read-out: minimal inhibitory concentration.
Source text: Epidermophyton floccosum OKI/IV.
as §1

The subject of test [4] is Trichophyton rubrum CBS.30338. As to conditions: Trichophyton rubrum.
Source text: Trichophyton rubrum CBS.30338
as §1

The subject of test [5] is Aspergillus niger CBS.12648. The note with it: Aspergillus niger.
Source text: Aspergillus niger CBS.12648
as §1

In test [6] the test system is Penicillium digitatum CBS.31948. The note with it: Penicillium digitatum.
Source text: Penicillium digitatum CBS.31948
as §1

Test [7] concerns Sporotrichum schenkii CBS.34035. As to conditions: Sporotrichum.
Source text: Sporotrichum schenkii CBS.34035
as §1

In brackets after ≈: the same amount, converted by molar mass. Like-named read-outs stand apart in the source and are kept apart here.

With `Cc1cccc(N2C(=O)CC(S(=O)(=O)C3CCCCC3)C2=O)c1` (stereo not drawn) [1-m(tolyl)-3-cyclohexyl-sulfonyl-pyrrolidine-2,5-dione], the MIC in the test with Candida albicans CBS.562 (CBS.562, 24 h, 24 hours) was 50 µg/mL (≈ 149 µM); in the test on Candida albicans CBS.562 (CBS.562, 48 h, 48 hours), 100 µg/mL (≈ 298 µM); in test [1] (CBS.50148, 72 h, 72 hours) it was 5 µg/mL (≈ 14.9 µM); in test [1] (CBS.50148, 144 h, 144 hours), 25 µg/mL (≈ 74.5 µM); in test [1] (CBS.50148, 288 h, 288 hours), 50 µg/mL (≈ 149 µM); in test [2] (OKI.1282, 24 h, 24 hours), 25 µg/mL (≈ 74.5 µM). In addition, the MIC in test [2] (OKI.1282, 48 h, 48 hours) amounted to 25 µg/mL (≈ 74.5 µM); in test [3] (72 h), 5 µg/mL (≈ 14.9 µM); in test [3] (144 h) it was 10 µg/mL (≈ 29.8 µM); in test [3] (288 h) it was 25 µg/mL (≈ 74.5 µM); in test [4] (CBS.30338, 72 h, 72 hours), 5 µg/mL (≈ 14.9 µM); in test [4] (CBS.30338, 144 h, 144 hours), 10 µg/mL (≈ 29.8 µM). Besides, the MIC in test [4] (CBS.30338, 288 h, 288 hours) was 25 µg/mL (≈ 74.5 µM); in test [5] (CBS.12648, 72 h, 72 hours), 75 µg/mL (≈ 224 µM); in test [5] (CBS.12648, 144 h, 144 hours), 100 µg/mL (≈ 298 µM); in test [5] (CBS.12648, 288 h, 288 hours), 150 µg/mL (≈ 447 µM); in test [6] (CBS.31948, 72 h, 72 hours), 10 µg/mL (≈ 29.8 µM); in test [6] (CBS.31948, 144 h, 144 hours), 25 µg/mL (≈ 74.5 µM). Besides, the MIC in test [6] (CBS.31948, 288 h, 288 hours) stood at 25 µg/mL (≈ 74.5 µM); in test [7] (CBS.34035, 72 h, 72 hours) it was 10 µg/mL (≈ 29.8 µM); in test [7] (CBS.34035, 144 h, 144 hours) it was 25 µg/mL (≈ 74.5 µM); in test [7] (CBS.34035, 288 h, 288 hours) it was 50 µg/mL (≈ 149 µM).
Take `O=C1CC(S(=O)(=O)C2CCCCC2)C(=O)N1c1ccccc1[N+](=O)[O-]` (stereo not drawn) [1-(o-nitrophenyl)-3-cyclohexyl-sulfonyl-pyrrolidine-2,5-dione]: the MIC is 75 µg/mL (≈ 205 µM) in the test with Candida albicans CBS.562 (CBS.562, 24 h, 24 hours); 150 µg/mL (≈ 409 µM) in the test with Candida albicans CBS.562 (CBS.562, 48 h, 48 hours); 75 µg/mL (≈ 205 µM) in test [1] (CBS.50148, 72 h, 72 hours); 150 µg/mL (≈ 409 µM) in test [1] (CBS.50148, 144 h, 144 hours); 150 µg/mL (≈ 409 µM) in test [1] (CBS.50148, 288 h, 288 hours); 100 µg/mL (≈ 273 µM) in test [2] (OKI.1282, 24 h, 24 hours). The MIC in test [2] (OKI.1282, 48 h, 48 hours) was 200 µg/mL (≈ 546 µM); in test [3] (72 h), 75 µg/mL (≈ 205 µM); in test [3] (144 h), 100 µg/mL (≈ 273 µM); in test [3] (288 h), 150 µg/mL (≈ 409 µM); in test [4] (CBS.30338, 72 h, 72 hours), 50 µg/mL (≈ 136 µM); in test [4] (CBS.30338, 144 h, 144 hours), 50 µg/mL (≈ 136 µM). Moreover, the MIC in test [4] (CBS.30338, 288 h, 288 hours) was 75 µg/mL (≈ 205 µM); in test [5] (CBS.12648, 72 h, 72 hours), 150 µg/mL (≈ 409 µM); in test [5] (CBS.12648, 144 h, 144 hours), 200 µg/mL (≈ 546 µM); in test [5] (CBS.12648, 288 h, 288 hours), 200 µg/mL (≈ 546 µM); in test [6] (CBS.31948, 72 h, 72 hours) it was 25 µg/mL (≈ 68.2 µM); in test [6] (CBS.31948, 144 h, 144 hours), 50 µg/mL (≈ 136 µM). Further, the MIC in test [6] (CBS.31948, 288 h, 288 hours) is 50 µg/mL (≈ 136 µM); in test [7] (CBS.34035, 72 h, 72 hours), 10 µg/mL (≈ 27.3 µM); in test [7] (CBS.34035, 144 h, 144 hours), 50 µg/mL (≈ 136 µM); in test [7] (CBS.34035, 288 h, 288 hours), 50 µg/mL (≈ 136 µM).
Turning to `COc1ccc(N2C(=O)CC(S(=O)(=O)C3CCCCC3)C2=O)cc1` (stereo not drawn) [1-(4-Methoxyphenyl)-3-cyclohexyl-sulfonyl-pyrrolidine-2,5-dione], the MIC with Candida albicans CBS.562 (CBS.562, 24 h, 24 hours) was determined as 50 µg/mL (≈ 142 µM); against Candida albicans CBS.562 (CBS.562, 48 h, 48 hours) it was 150 µg/mL (≈ 427 µM); in test [1] (CBS.50148, 72 h, 72 hours), 2.5 µg/mL (≈ 7.11 µM); in test [1] (CBS.50148, 144 h, 144 hours) it was 75 µg/mL (≈ 213 µM); in test [1] (CBS.50148, 288 h, 288 hours) it was 100 µg/mL (≈ 285 µM); in test [2] (OKI.1282, 24 h, 24 hours) it was 25 µg/mL (≈ 71.1 µM). The MIC is 50 µg/mL (≈ 142 µM) in test [2] (OKI.1282, 48 h, 48 hours); 5 µg/mL (≈ 14.2 µM) in test [3] (72 h); 25 µg/mL (≈ 71.1 µM) in test [3] (144 h); 75 µg/mL (≈ 213 µM) in test [3] (288 h); 10 µg/mL (≈ 28.5 µM) in test [4] (CBS.30338, 72 h, 72 hours); 10 µg/mL (≈ 28.5 µM) in test [4] (CBS.30338, 144 h, 144 hours). Moreover, the MIC in test [4] (CBS.30338, 288 h, 288 hours) stood at 10 µg/mL (≈ 28.5 µM); in test [5] (CBS.12648, 72 h, 72 hours), 75 µg/mL (≈ 213 µM); in test [5] (CBS.12648, 144 h, 144 hours), 100 µg/mL (≈ 285 µM); in test [5] (CBS.12648, 288 h, 288 hours), 150 µg/mL (≈ 427 µM); in test [6] (CBS.31948, 72 h, 72 hours), 100 µg/mL (≈ 285 µM); in test [6] (CBS.31948, 144 h, 144 hours), 100 µg/mL (≈ 285 µM). Further, the MIC in test [6] (CBS.31948, 288 h, 288 hours) stood at 150 µg/mL (≈ 427 µM); in test [7] (CBS.34035, 72 h, 72 hours), 5 µg/mL (≈ 14.2 µM); in test [7] (CBS.34035, 144 h, 144 hours), 10 µg/mL (≈ 28.5 µM); in test [7] (CBS.34035, 288 h, 288 hours), 10 µg/mL (≈ 28.5 µM).
